Source: US10377698B2, “Diphenethylamine derivatives which are inter alia useful as analgesics and method for their production” (UNIVERSITY OF INNSBRUCK, priority 2015, dated 2019)
Where a name gives a salt, the structure may show the parent alone. Read-outs that look alike come from different tables or passages of the source. Each block holds one compound with its values, some of them ahead of it.

Legend:
human MOR = biological target: T1, human MOR (Homo sapiens, UniProt P35372); assay: Opioid receptor binding assay, competition binding, CHO cell membranes (MOR); details: membranes from CHO cells stably expressing human MOR; read-out: Affinity Ki MOR
T1 construct: expressed in transfected cells; host or cells: CHO cells (membranes)

KOR [1] = biological target: T2, KOR (Homo sapiens, UniProt P41145); assay: biochemical; format: binding; set-up: expressed in transfected cells; host or cells: CHO cells (membranes)
KOR [2] = biological target: T2, KOR; assay: biochemical; format: biochemical; set-up: expressed in transfected cells; host or cells: CHO cells (membranes); details: for Emax: read-out: [35S]GTPγS binding KOR Emax
human DOR = biological target: T3, human DOR (Homo sapiens, UniProt P41143); assay: Opioid receptor binding assay, competition binding, CHO cell membranes (DOR); details: membranes from CHO cells stably expressing human DOR; read-out: Affinity Ki DOR
T3 construct: expressed in transfected cells; host or cells: CHO cells (membranes)

KOR [3] = biological target: T2, KOR; assay: KOR-mediated β-arrestin2 recruitment, DiscoveRx PathHunter assay, U2OS-hMOR-β-arrestin2 cells; format: cell-based; details: for Emax: read-out: β-arrestin2 recruitment assay Emax
[4] = set-up: species or system mice; details: mouse, in vivo, sc
[5] = read-out: [35S]GTPγS binding KOR EC50

T1 sequence (P35372 whole entry): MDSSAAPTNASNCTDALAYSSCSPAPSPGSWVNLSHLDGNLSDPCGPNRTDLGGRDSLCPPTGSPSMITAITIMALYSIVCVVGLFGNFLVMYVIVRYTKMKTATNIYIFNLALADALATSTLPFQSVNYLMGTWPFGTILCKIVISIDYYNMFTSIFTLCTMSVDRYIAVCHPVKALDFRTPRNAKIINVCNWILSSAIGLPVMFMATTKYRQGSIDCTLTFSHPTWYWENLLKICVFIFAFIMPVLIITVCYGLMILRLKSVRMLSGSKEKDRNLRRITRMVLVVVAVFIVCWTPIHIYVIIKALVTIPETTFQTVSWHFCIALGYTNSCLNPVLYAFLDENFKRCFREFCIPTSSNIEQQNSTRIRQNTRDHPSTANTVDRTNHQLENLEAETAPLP
T2 sequence (P41145 whole entry): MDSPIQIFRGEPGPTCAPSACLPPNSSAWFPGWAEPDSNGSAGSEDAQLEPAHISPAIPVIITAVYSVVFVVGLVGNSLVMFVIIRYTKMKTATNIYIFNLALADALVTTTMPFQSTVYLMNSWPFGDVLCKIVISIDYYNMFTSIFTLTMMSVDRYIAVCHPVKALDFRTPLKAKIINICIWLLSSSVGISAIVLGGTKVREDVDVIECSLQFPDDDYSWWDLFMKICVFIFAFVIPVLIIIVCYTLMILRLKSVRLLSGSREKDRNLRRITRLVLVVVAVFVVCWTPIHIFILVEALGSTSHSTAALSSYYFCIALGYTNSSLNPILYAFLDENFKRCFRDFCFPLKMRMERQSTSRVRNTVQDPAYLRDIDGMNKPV
T3 sequence (P41143 whole entry): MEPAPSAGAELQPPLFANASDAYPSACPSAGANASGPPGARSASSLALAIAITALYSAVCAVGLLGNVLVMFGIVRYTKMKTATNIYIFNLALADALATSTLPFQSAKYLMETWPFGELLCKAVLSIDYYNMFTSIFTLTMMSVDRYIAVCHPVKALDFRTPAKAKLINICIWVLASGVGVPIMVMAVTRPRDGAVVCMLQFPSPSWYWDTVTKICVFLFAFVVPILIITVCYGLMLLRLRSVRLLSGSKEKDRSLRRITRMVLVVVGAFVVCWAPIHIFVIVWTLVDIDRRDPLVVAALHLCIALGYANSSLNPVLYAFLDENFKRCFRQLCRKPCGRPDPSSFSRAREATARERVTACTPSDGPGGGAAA

SMILES: Oc1cccc(CCN(CCc2ccccc2)Cc2ccccc2)c1F
melting point: 126 to 128 °C

SMILES: Oc1cccc(CCN(CCc2cccc(O)c2)CC2CCCC2)c1 [Compound 39, 3,3′-[2,2′-(Cyclopentylmethylazanediyl)bis(ethane-2,1-diyl)]diphenol]
Ki (human MOR): 702 nM
melting point: 113 °C
Ki (KOR [1]): 0.38 nM
EC50 (KOR [2]): 14.2 nM
Emax (KOR [2]): 83.6%

SMILES: Oc1cccc(CCN(CCc2ccccc2)CC2CCCCC2)c1 [Compound 3, 3-[2-[(Cyclohexylmethyl)(phenethyl)amino]ethyl]phenol]
Ki (human MOR): 436 nM
Ki (human DOR): 2140 nM
Bias factor (KOR [3]): 2909
EC50 (KOR [3]): 1360 nM
Emax (KOR [3]): 72.2%
ED50 writhing test [4]: 0.97 mg/kg, s.c.
Relative analgesic potency to HS665 [4]: 2.0
Relative analgesic potency to HS666 [4]: 3.3
Relative analgesic potency to U50,488 [4]: 1.6
melting point: 150 to 151 °C
Ki (KOR [1]): 0.088 nM
EC50 (KOR [2]; [5]): 0.23 nM
Emax (KOR [2]): 61.9%

SMILES: Oc1cccc(CCN(CCc2ccccc2)CC2CCC2)c1F [Compound 49, 3-[2-[(Cyclobutylmethyl)(phenethyl)amino]ethyl]-2-fluorophenol]
Ki (human MOR): 414 nM
Bias factor (KOR [3]): 82
EC50 (KOR [3]): 859 nM
Emax (KOR [3]): 57.5%
Ki (KOR [1]): 0.022 nM
EC50 (KOR [2]; [5]): 6.9 nM
Emax (KOR [2]): 66.1%

SMILES: Oc1cccc(CCN(CCc2ccccc2)CC2CCC2)c1 [HS665, reference compound]
Ki (human DOR): > 10000 nM
ED50 writhing test [4]: 1.91 mg/kg, s.c.

SMILES: Oc1cccc(CCN(CCc2ccccc2)CC2CCCC2)c1 [Compound 2, 3-[2-[(Cyclopentylmethyl)(phenethyl)amino]ethyl]phenol]
Ki (human DOR): 5210 nM
EC50 (KOR [3]): 1340 nM
Emax (KOR [3]): 83%
ED50 writhing test [4]: 0.54 mg/kg, s.c.
Relative analgesic potency to HS665 [4]: 3.5
Relative analgesic potency to HS666 [4]: 6.0
Relative analgesic potency to U50,488 [4]: 2.9
melting point: 154 to 156 °C
EC50 (KOR [2]): 4.19 nM
Emax (KOR [2]): 72.9%

SMILES: COc1cccc(CCN(CCc2ccc(O)cc2)CC2CCCC2)c1 [Compound 27, 4-[2-[(Cyclopentylmethyl)(3-methoxyphenethyl)amino]ethyl]phenol]
Ki (human MOR): 158 nM
Ki (human DOR): 6240 nM
melting point: 74 to 77 °C
Ki (KOR [1]): 0.17 nM
EC50 (KOR [2]): 22.8 nM
Emax (KOR [2]): 73.6%

SMILES: Oc1cccc(CCN(CCc2cccc(O)c2)CC2CCC2)c1 [Compound 12, 3,3′-[2,2′-(Cyclobutylmethylazanediyl)bis(ethane-2,1-diyl)]diphenol]
Ki (human MOR): 230 nM
Ki (human DOR): 4180 nM
ED50 writhing test [4]: 1.59 mg/kg, s.c.
Relative analgesic potency to HS665 [4]: 1.2
Relative analgesic potency to HS666 [4]: 2.0
Relative analgesic potency to U50,488 [4]: 1.0
Ki (KOR [1]): 0.34 nM
EC50 (KOR [2]): 5.51 nM
Emax (KOR [2]): 71.4%

SMILES: Nc1cccc(CCN(CCc2ccccc2)CC2CCC2)c1 (as salt: hydrochloride)
melting point: 68 to 70 °C

SMILES: Oc1cccc(CCN(CCc2ccccc2)C2CCC2)c1
melting point: 100 to 101 °C

SMILES: Oc1ccc(CCN(CCc2ccccc2)CC2CCCC2)cc1
melting point: 150 to 153 °C

SMILES: Oc1cccc(CCN(CCc2cccc(O)c2F)CC2CCC2)c1 [Compound 53, 3-[2-[(Cyclobutylmethyl)(3-hydroxyphenethyl)amino]ethyl]-2-fluorophenol]
Ki (human MOR): 548 nM
Ki (human DOR): 4750 nM
Bias factor (KOR [3]): 263
EC50 (KOR [3]): 529 nM
Emax (KOR [3]): 41.2%
Ki (KOR [1]; read-out: Affinity Ki KOR): 0.12 nM
EC50 (KOR [2]; [5]): 1.49 nM
Emax (KOR [2]): 53.1%

SMILES: Cl.Oc1cccc(CCN(CCc2ccccc2)CC2CC2)c1 [HS666, 3-[2-[(Cyclopropylmethyl)(phenethyl)amino]ethyl]phenol Hydrochloride, reference compound]
Ki (human MOR): 826 nM
Ki (human DOR): > 10000 nM
Bias factor (KOR [3]): 18
EC50 (KOR [3]): 502 nM
Emax (KOR [3]): 25%
ED50 writhing test [4]: 3.23 mg/kg, s.c.
Relative analgesic potency to HS665 [4]: 0.6
Relative analgesic potency to HS666 [4]: 1.0
Relative analgesic potency to U50,488 [4]: 0.5
Ki (KOR [1]; read-out: Affinity Ki KOR): 5.9 nM
EC50 (KOR [2]; [5]): 35 nM
Emax (KOR [2]): 53.4%

SMILES: Oc1cccc(CCN(CCc2cccc(O)c2)CC2CCCCC2)c1 [Compound 29, 3,3′-[2,2′-(Cyclohexylmethylazanediyl)bis(ethane-2,1-diyl)]diphenol]
Ki (human MOR): 219 nM
melting point: 157 to 158 °C
Ki (KOR [1]): 0.18 nM
EC50 (KOR [2]): 10.6 nM
Emax (KOR [2]): 92.2%

SMILES: Oc1cccc(CCN(CCc2ccccc2)Cc2ccccc2)c1 [Compound 4, 3-[2-[Benzyl(phenethyl)amino]ethyl]phenol]
Ki (human MOR): 463 nM
Ki (human DOR): 1860 nM
Bias factor (KOR [3]): 1172
EC50 (KOR [3]; DiscoveRx PathHunter assay, U2OS-hMOR cells, read-out: β-arrestin2 recruitment assay EC50): 4450 nM
Emax (KOR [3]): 37.3%
Relative analgesic potency to HS665 [4]: 1.6
Relative analgesic potency to HS666 [4]: 2.7
Relative analgesic potency to U50,488 [4]: 1.3
melting point: 177 to 178 °C
Ki (KOR [1]; read-out: Affinity Ki KOR): 0.71 nM
EC50 (KOR [2]; [5]): 4.65 nM
Emax (KOR [2]): 79.5%

SMILES: Oc1cccc(CCN(CCc2ccccc2)CC2CCCCC2)c1F [Compound 51, 3-[2-[(Cyclohexylmethyl)(phenethyl)amino]ethyl]-2-fluorophenol]
Ki (human MOR): 543 nM
Bias factor (KOR [3]): 1514
EC50 (KOR [3]): 4180 nM
Emax (KOR [3]): 48.4%
ED50 writhing test [4]: 1.20 mg/kg, s.c.
Relative analgesic potency to HS665 [4]: 1.6
Relative analgesic potency to HS666 [4]: 2.7
Relative analgesic potency to U50,488 [4]: 1.3
melting point: 129 to 130 °C
Ki (KOR [1]): 0.046 nM
EC50 (KOR [2]; [5]): 2.77 nM
Emax (KOR [2]): 84.6%

The next lines start with the values.

melting point: 104 to 106 °C
SMILES: C=CCN(CCc1cccc(O)c1)CCc1cccc(O)c1

melting point: 104 to 105 °C
SMILES: Oc1ccc(CCN(CCc2cccc(O)c2)CC2CC2)cc1

melting point: 103 to 105 °C
SMILES: C=CCN(CCc1ccc(O)cc1)CCc1cccc(O)c1

melting point: 155 to 157 °C
SMILES: Oc1ccc(CCN(CCc2cccc(O)c2)CC2CCCCC2)cc1

melting point: 70 to 72 °C
SMILES: CCCCCN(CCc1cccc(O)c1)CCc1cccc(O)c1

melting point: 62 to 64 °C
SMILES: CCCCN(CCc1cccc(O)c1)CCc1cccc(O)c1

melting point: 65 to 68 °C
SMILES: CCCCN(CCc1ccc(O)cc1)CCc1cccc(O)c1

melting point: 149 to 150 °C
SMILES: CC(C)CCN(CCc1ccccc1)CCc1cccc(O)c1

melting point: 71 to 72 °C
SMILES: CC(C)CCN(CCc1cccc(O)c1)CCc1cccc(O)c1

melting point: 106 to 107 °C
SMILES: Oc1cccc(CCN(CCc2cccc(O)c2)CC2CC2)c1

melting point: 75 to 76 °C
SMILES: CCCCCCN(CCc1cccc(O)c1)CCc1cccc(O)c1
